In patent US9029391B2 (priority 2011, dated 2015):

Tested on: HIV
Assay: MT4 Assay (anti-HIV activity)
Format: cell-based
Conditions: Human immunodeficiency virus 1, 96 h, read-out: HIV MT4 Assay IC50, HTLV-1 transformed cell line MT-4, cell titer glo, 10 point dose response curve
Summary of the method: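 MT-4 cells (HTLV-1 transformed) were used for antiviral activity and cytotoxicity, run in parallel, with luminescence read by CellTiter-Glo 96 hours later. Percent inhibition was expressed against the no-compound control. IC50s came from 10-point curves of 3-4-fold serial dilutions spanning >1000-fold.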

Structure (SMILES) | IC50 [nM]
COCCOc1ccc2c(-c3ccc4c(c3C)CCCO4)c(C(OC(C)(C)C)C(=O)O)n(C)c(=O)c2c1 (stereo not drawn) [Example 81, 2-(tert-butoxy)-2-[7-(2-methoxyethoxy)-2-methyl-4-(5-methyl-3,4-dihydro-2H-1-benzopyran-6-yl)-1-oxo-1,2-dihydroisoquinolin-3-yl]acetic acid] | 440
Cn1c(C(OC(C)(C)C)C(=O)O)c(-c2ccc3c(c2)NCCO3)c2ccccc2c1=O (stereo not drawn) [Example 82, 2-(tert-butoxy)-2-[4-(3,4-dihydro-2H-1,4-benzoxazin-6-yl)-2-methyl-1-oxo-1,2-dihydroisoquinolin-3-yl]acetic acid] | 7400
Cc1c(-c2c(C(OC(C)(C)C)C(=O)O)n(C)c(=O)c3c(F)cccc23)ccc2c1CCCO2 (stereo not drawn) [Example 83, 2-(tert-butoxy)-2-[8-fluoro-2-methyl-4-(5-methyl-3,4-dihydro-2H-1-benzopyran-6-yl)-1-oxo-1,2-dihydroisoquinolin-3-yl]acetic acid] | 500
Cc1c(-c2c(C(OC(C)(C)C)C(=O)O)n(C)c(=O)c3cc(O)ccc23)ccc2c1CCCO2 (stereo not drawn) [Example 84, 2-(tert-butoxy)-2-[7-hydroxy-2-methyl-4-(5-methyl-3,4-dihydro-2H-1-benzopyran-6-yl)-1-oxo-1,2-dihydroisoquinolin-3-yl]acetic acid] | 26000
Cc1c(-c2c(C(OC(C)(C)C)C(=O)O)n(C)c(=O)c3cc(OCCN(C)C)ccc23)ccc2c1CCCO2 (stereo not drawn) [Example 85, 2-(tert-butoxy)-2-{7-[2-(dimethylamino)ethoxy]-2-methyl-4-(5-methyl-3,4-dihydro-2H-1-benzopyran-6-yl)-1-oxo-1,2-dihydroisoquinolin-3-yl}acetic acid] | 7630
Cn1c(C(OC(C)(C)C)C(=O)O)c(-c2ccc3c(c2Cl)NCCO3)c2ccccc2c1=O (stereo not drawn) [Example 86, 2-(tert-butoxy)-2-[4-(5-chloro-3,4-dihydro-2H-1,4-benzoxazin-6-yl)-2-methyl-1-oxo-1,2-dihydroisoquinolin-3-yl]acetic acid] | 4380
Cc1ccc(-c2c(C(OC(C)(C)C)C(=O)O)n(C)c(=O)c3cc(F)ccc23)cc1C (stereo not drawn) [Example 87, 2-(tert-butoxy)-2-[4-(3,4-dimethylphenyl)-7-fluoro-2-methyl-1-oxo-1,2-dihydroisoquinolin-3-yl]acetic acid] | 740
Cc1c(-c2c(C(OC(C)(C)C)C(=O)O)n(C)c(=O)c3cc(OCc4ccccc4)ccc23)ccc2c1CCCO2 (stereo not drawn) [Example 88, 2-[7-(benzyloxy)-2-methyl-4-(5-methyl-3,4-dihydro-2H-1-benzopyran-6-yl)-1-oxo-1,2-dihydroisoquinolin-3-yl]-2-(tert-butoxy)acetic acid] | 110
Cc1c(-c2c(C(OC(C)(C)C)C(=O)O)n(C)c(=O)c3cc(OCCF)ccc23)ccc2c1CCCO2 (stereo not drawn) [Example 89, 2-(tert-butoxy)-2-[7-(2-fluoroethoxy)-2-methyl-4-(5-methyl-3,4-dihydro-2H-1-benzopyran-6-yl)-1-oxo-1,2-dihydroisoquinolin-3-yl]acetic acid] | 400
Cc1c(-c2c(C(OC(C)(C)C)C(=O)O)n(C)c(=O)c3c(F)cccc23)cc(F)c2c1CCCO2 (stereo not drawn) [Example 90, 2-(tert-butoxy)-2-[8-fluoro-4-(8-fluoro-5-methyl-3,4-dihydro-2H-1-benzopyran-6-yl)-2-methyl-1-oxo-1,2-dihydroisoquinolin-3-yl]acetic acid] | 510
Cc1c(-c2c(C(OC(C)(C)C)C(=O)O)n(C)c(=O)c3ccc(F)cc23)cc(F)c2c1CCCO2 (stereo not drawn) [Example 91, 2-(tert-butoxy)-2-[6-fluoro-4-(8-fluoro-5-methyl-3,4-dihydro-2H-1-benzopyran-6-yl)-2-methyl-1-oxo-1,2-dihydroisoquinolin-3-yl]acetic acid] | 440
Cc1c(-c2c(C(OC(C)(C)C)C(=O)O)n(C)c(=O)c3cc(F)ccc23)cc(F)c2c1CCCO2 (stereo not drawn) [Example 92, 2-(tert-butoxy)-2-[7-fluoro-4-(8-fluoro-5-methyl-3,4-dihydro-2H-1-benzopyran-6-yl)-2-methyl-1-oxo-1,2-dihydroisoquinolin-3-yl]acetic acid] | 140
Cc1c(-c2c(C(OC(C)(C)C)C(=O)O)n(C)c(=O)c3cc(OCc4ccc(F)cc4)ccc23)ccc2c1CCCO2 (stereo not drawn) [Example 93, 2-(tert-butoxy)-2-{7-[(4-fluorophenyl)methoxy]-2-methyl-4-(5-methyl-3,4-dihydro-2H-1-benzopyran-6-yl)-1-oxo-1,2-dihydroisoquinolin-3-yl}acetic acid] | 80
COc1ccc2c(-c3ccc4c(c3C)CCCO4)c([C@H](OC(C)(C)C)C(=O)O)n(C)c(=O)c2c1 [Example 94, (2S)-2-(tert-butoxy)-2-[7-methoxy-2-methyl-4-(5-methyl-3,4-dihydro-2H-1-benzopyran-6-yl)-1-oxo-1,2-dihydroisoquinolin-3-yl]acetic acid] | 20
Cc1c(-c2c(C(OC(C)(C)C)C(=O)O)n(C)c(=O)c3cc(OCc4cc(F)ccc4F)ccc23)ccc2c1CCCO2 (stereo not drawn) [Example 95, 2-(tert-butoxy)-2-{7-[(2,5-difluorophenyl)methoxy]-2-methyl-4-(5-methyl-3,4-dihydro-2H-1-benzopyran-6-yl)-1-oxo-1,2-dihydroisoquinolin-3-yl}acetic acid] | 90
Cc1c(-c2c(C(OC(C)(C)C)C(=O)O)n(C)c(=O)c3cc(OCc4cccc(F)c4F)ccc23)ccc2c1CCCO2 (stereo not drawn) [Example 96, 2-(tert-butoxy)-2-{7-[(2,3-difluorophenyl)methoxy]-2-methyl-4-(5-methyl-3,4-dihydro-2H-1-benzopyran-6-yl)-1-oxo-1,2-dihydroisoquinolin-3-yl}acetic acid] | 70
Cc1c(-c2c(C(OC(C)(C)C)C(=O)O)n(C)c(=O)c3cc(OCc4cccnc4)ccc23)ccc2c1CCCO2 (stereo not drawn) [Example 97, 2-(tert-butoxy)-2-[2-methyl-4-(5-methyl-3,4-dihydro-2H-1-benzopyran-6-yl)-1-oxo-7-(pyridin-3-ylmethoxy)-1,2-dihydroisoquinolin-3-yl]acetic acid] | 370
Cc1c(-c2c(C(OC(C)(C)C)C(=O)O)n(C)c(=O)c3cc(OCc4c(F)cccc4F)ccc23)ccc2c1CCCO2 (stereo not drawn) [Example 98, 2-(tert-butoxy)-2-{7-[(2,6-difluorophenyl)methoxy]-2-methyl-4-(5-methyl-3,4-dihydro-2H-1-benzopyran-6-yl)-1-oxo-1,2-dihydroisoquinolin-3-yl}acetic acid] | 90
Cc1c(-c2c(C(OC(C)(C)C)C(=O)O)n(C)c(=O)c3cc(OCc4c(F)cc(F)cc4F)ccc23)ccc2c1CCCO2 (stereo not drawn) [Example 99, 2-(tert-butoxy)-2-[2-methyl-4-(5-methyl-3,4-dihydro-2H-1-benzopyran-6-yl)-1-oxo-7-[(2,4,6-trifluorophenyl)methoxy]-1,2-dihydroisoquinolin-3-yl]acetic acid] | 130
Cc1c(-c2c(C(OC(C)(C)C)C(=O)O)n(C)c(=O)c3cc(OCc4ccc(F)cn4)ccc23)ccc2c1CCCO2 (stereo not drawn) [Example 100, 2-(tert-butoxy)-2-{7-[(5-fluoropyridin-2-yl)methoxy]-2-methyl-4-(5-methyl-3,4-dihydro-2H-1-benzopyran-6-yl)-1-oxo-1,2-dihydroisoquinolin-3-yl}acetic acid] | 270
Cc1c(-c2c(C(OC(C)(C)C)C(=O)O)n(C)c(=O)c3cc(OCc4ccc(F)cn4)ccc23)cc(F)c2c1CCCO2 (stereo not drawn) [Example 101, 2-(tert-butoxy)-2-[4-(8-fluoro-5-methyl-3,4-dihydro-2H-1-benzopyran-6-yl)-7-[(5-fluoropyridin-2-yl)methoxy]-2-methyl-1-oxo-1,2-dihydroisoquinolin-3-yl]acetic acid] | 290
Cc1cccnc1COc1ccc2c(-c3ccc4c(c3C)CCCO4)c(C(OC(C)(C)C)C(=O)O)n(C)c(=O)c2c1 (stereo not drawn) [Example 102, 2-(tert-butoxy)-2-[2-methyl-4-(5-methyl-3,4-dihydro-2H-1-benzopyran-6-yl)-7-[(3-methylpyridin-2-yl)methoxy]-1-oxo-1,2-dihydroisoquinolin-3-yl]acetic acid] | 330
Cc1c(-c2c(C(OC(C)(C)C)C(=O)O)n(C)c(=O)c3cc(OCc4ccccc4F)ccc23)ccc2c1CCCO2 (stereo not drawn) [Example 103, 2-(tert-butoxy)-2-{7-[(2-fluorophenyl)methoxy]-2-methyl-4-(5-methyl-3,4-dihydro-2H-1-benzopyran-6-yl)-1-oxo-1,2-dihydroisoquinolin-3-yl}acetic acid] | 50
Cc1c(-c2c(C(OC(C)(C)C)C(=O)O)n(C)c(=O)c3cc(OCc4cccc(F)c4)ccc23)ccc2c1CCCO2 (stereo not drawn) [Example 104, 2-(tert-butoxy)-2-{7-[(3-fluorophenyl)methoxy]-2-methyl-4-(5-methyl-3,4-dihydro-2H-1-benzopyran-6-yl)-1-oxo-1,2-dihydroisoquinolin-3-yl}acetic acid] | 60
Cc1nc(COc2ccc3c(-c4cc(F)c5c(c4C)CCCO5)c([C@H](OC(C)(C)C)C(=O)O)n(C)c(=O)c3c2)c(C)o1 [Example 105, (2S)-2-(tert-butoxy)-2-{7-[(dimethyl-1,3-oxazol-4-yl)methoxy]-4-(8-fluoro-5-methyl-3,4-dihydro-2H-1-benzopyran-6-yl)-2-methyl-1-oxo-1,2-dihydroisoquinolin-3-yl}acetic acid] | 100
COc1ccc2c(-c3cc(F)c4c(c3C)CCCO4)c([C@H](OC(C)(C)C)C(=O)O)n(C)c(=O)c2c1 [Example 106, (2S)-2-(tert-butoxy)-2-[4-(8-fluoro-5-methyl-3,4-dihydro-2H-1-benzopyran-6-yl)-7-methoxy-2-methyl-1-oxo-1,2-dihydroisoquinolin-3-yl]acetic acid] | 40
Cc1c(-c2c([C@H](OC(C)(C)C)C(=O)O)n(C)c(=O)c3cc(OCc4ccc(F)cc4F)ccc23)cc(F)c2c1CCCO2 [Example 107, (2S)-2-(tert-butoxy)-2-{7-[(2,4-difluorophenyl)methoxy]-4-(8-fluoro-5-methyl-3,4-dihydro-2H-1-benzopyran-6-yl)-2-methyl-1-oxo-1,2-dihydroisoquinolin-3-yl}acetic acid] | 20
